The values below come from patent US5750547A, “Certain carbanate anti-cancer agents” (priority 1996, dated 1998).

Data set [1] deals with MDA-MB-231 cells. Kind of data set: In vitro cytotoxicity (MTT), MDA-MB-231 cells. The class given is cell-based, human. The source says: (§1) As suitable cell lines there may be mentioned: human adenocarcinoma cells (CRL-229, LoVo), human ovarian carcinoma cells (CRL-1572), human breast cancer cells (MDA-MB-231), normal mouse breast cells (HC-11), mouse leukaemia cells (CCL-46, P388D1), mouse leukaemia (CCL-219, L1210), CRL-1427, human promonocyte U937 and the like. Most of these cell lines are readily available from the American Type Culture Collection. Cells lines: 0-23, 0-23 clone 2.2, LR-73, LR-73 MDR-3, T47D and T47D (GST), having developed resistance to antineoplastic agents through different mechanisms of resistance were also tested in the same manner.
(§2) All cell lines are cultured by a standard procedure in RPMI-1640®mediumsupplemented with 10% fetal bovine serum and 100 ,pg/mL of penicillin and 100 μg/mL of streptomycin.
(§3) In order to evaluate the efficiency of the compounds of formula I, the following experiments are carried out. Cytotoxicity assays are conducted on LoVo, MDA-MB-231 and P388D1 cells. The choice of these cells has been motivated by the fact that they have been specifically identified as the cause of a large number of cancer in North America in the recent years.
(§4) Tumor cells are obtained from the American Type Culture Collection. The cells are suspended at a concentration of 2.5×10^4 cells/mL in a fresh culture media (RPMI-1640, supplemented with 10% fetal calf serum). The well plates (microtitration, 96 wells) are seeded with 100 μL of the cell suspension and incubated 24 hours at 37° C. in a humid atmosphere containing 5% CO2.100 μL of fresh culture media containing different concentrations of drugs to be tested (1 to 25 μM) are added in 8 wells of each plate, and the cells are further incubated for 3 additional days at 37° C. under the same conditions. Each experiment is conducted in triplicate. Cell survival is determined by MTT method, as taught in J. Immunol Methods, 1986, 89, 271 (Denizot et al.) and Int. J. Immunopharm, 1988. 10, 785 (Page et al). The method mainly consisted of a first removal of the culture media and addition to the plates of 20 μL of a MTT solution (5 mg/mL in PBS pH 7.4). The plates are incubated at 37° C. for 4 hours and then 200 μL of dimethylsuffoxide (DMSO) area added into the wells. The plates are agitated for 15 min at room temperature and the absorbance at 540 nm measured on Titertek MC Multiwell® spectrophotometer.
(§5) The method normally used by the American National Cancer Institute for the comparison of effectiveness between drugs is based upon ID50. The ID50 is the concentration at which half of tumor cell population is killed. A comparison of the antitumor agents of the present invention with chlorambucil, which is presently used commercially, is provided to illustrate the superiority of the former.

The subject of data set [2] is primary brain tumors. The conditions noted are these: low doses; cited from earlier work.
For data set [3] the following is noted: cited from earlier work; for biological half-life: approximately.
The conditions of data set [4]: administered orally or intravenously; cited from earlier work.
Data set [5] has as its system LoVo cells. The experiment in a line: In vitro cytotoxicity (MTT), LoVo cells. The class given is cell-based. The conditions noted are these: Homo sapiens, 72 h.
From the text: as §1, §2, §3, §4, §5

The subject of data set [6] is P388D1 cells. Kind of data set: In vitro cytotoxicity (MTT), P388D1 cells. Format: cell-based. Conditions: Mus musculus, P388D1, 72 h.
From the text: as §1, §2, §3, §4, §5

The nature of data set [7]: Acute toxicity assay, i.p. in mice (survival). The class given is in vivo, BDF1 (C57BL/6×DBA/2) mice. Here is the method: Chlorambucil and compound 36 of the present invention were dissolved in DMSO. Each drug solution was mixed with hydrogenated soybean oil in a ratio 1:9 v/v. 100 μL of this mixture was administered i.p. to BDF1 (C57BL/6×DBA/2) mice. For each concentration of drug, varying from 9.25 to 75 mg/kg for chlorambucil or from 9.25 to 296 mg/kg for compound 36, 6 mice were treated. Survival weight and fitness were measured as criteria of toxicity.

The subject of data set [8] is L1210 leukaemia cells. Kind of data set: Antineoplastic assay, L1210 leukaemia in BDF1 mice. The class given is in vivo. The conditions noted are these: 10 mg/kg, i.p. daily day 1 to day 9, L1210 in BDF1 mice. As to the method:
L1210 leukaemia cells suspended in RPM1-1640 were washed, centrifuged and re-suspended in phosphate buffer saline (PBS) at a concentration of 5×10^5 cells/mL. 200 μL of the suspension were injected i.p. to BDF1 mice. From day 1 to day 9, mice were treated daily according to the NCI procedure taught in Protocols for screening chemical agents and natural products against animal tumors and other biological systems (3rd edition). Cancer Chem. Rep. Part 3 3 (2): 1-103) with i.p. injections of 10 μL of drug solution in DMSO mixed with 90 μL of hydrogenated soybean oil. Chlorambucil was tested at 1, 5 and 10 mg/kg/day and compounds 36 and 4 at 1, 10 and 50 mg/kg/day. For each concentration, six mice were treated. Control groups were treated i.p. with 100 μL of hydrogenated soybean oil containing 10% (v/v) DMSO.
The antineoplastic activity of a drug on mice bearing cancer tumors is evaluated by a value known in the art as the median survival time (T/C %). This value of T/C % is obtained by dividing the median survival time of treated mice by that of untreated mice, and the quotient is multiplied by 100. When the value of T/C % is lower than 85, the drug is considered toxic. On the other hand, a survival time greater than 125 indicates a significant antineoplastic action of the drug on cancer tumors.

Where [9] appears, read: Table 2, 3 days incubation, MTT, read-out: ID50 (LoVo).
Setting [10] is: Homo sapiens, MDA-MB-231, 72 h, Table 2, 3 days incubation, MTT, read-out: ID50 (MDA-MB-231).
[11] abbreviates: Table 2, 3 days incubation, MTT, read-out: ID50 (P388 D1).
The mark [12] stands for this setting: Homo sapiens, MDA-MB-231, 72 h, Table 1, 3 days incubation, MTT, read-out: ID50 on tumor cells, MDA-MB-231.
Setting [13] is: Table 1, 3 days incubation, MTT, read-out: ID50 on tumor cells, LoVo.
The mark [14] stands for this setting: Table 1, 3 days incubation, MTT, read-out: ID50 on tumor cells, P388D1.

Where two headings read alike, the source gives them in different places.

As for “5-[3-(2-chloroethyl)ureido] 4,6-dimethyl pyridine [VIII]”, in data set [1] (Table 1, 3 days incubation, MTT, read-out: ID50 on tumor cells, MDA-MB-231), the IC50 came to 50 µM.
On to `O=NN(CCCl)C(=O)NCCCl` [Carmustine], for which the “activity in primary brain tumors” value in data set [2] is recorded as “active in primary brain tumors”. For the same molecule, in data set [3], the biological half-life is recorded as 1-1.5 h and the “percentage bound to plasma proteins” value is reported as “over 90%”. The side effects entry in data set [4] was “nausea, vomiting, alopecia, lymphopenia, leucopenia and bone marrow depression”.
For `O=C(O)CCCc1ccc(N(CCCl)CCCl)cc1` [Chlorambucil, reference compound], the IC50 in data set [5] (read-out: ID50 (LoVo)) amounted to 9 µM; in data set [1] (Homo sapiens, MDA-MB-231, 72 h, read-out: ID50 (MDA-MB-231)) it was 11 µM; in data set [6] (read-out: ID50 (P388 D1)), 6.7 µM. In addition, the “Acute toxicity, survival” value in data set [7] (9.25 mg/kg i.p.) was 6/6; in data set [7] (18.5 mg/kg i.p.), 6/6; in data set [7] (37 mg/kg i.p.) it was 6/6; in data set [7] (75 mg/kg i.p.), 0/6. Also, the “median survival time (T/C %)” value in data set [8] was determined as 160%. Also, the biological half-life in data set [3] is given as 1-1.5 h. In addition, the “percentage bound to plasma proteins” value in data set [3] was “over 90%”. The side effects result in data set [4] was “nausea, vomiting, alopecia, lymphopenia, leucopenia and bone marrow depression”.
For the molecule `CCc1cccc(NC(=O)NCCCl)c1` [Compound 2], the IC50 in data set [5] (setting [9]) is 3.5 µM; in data set [1] (setting [10]) it was 7.8 µM; in data set [6] (setting [11]), 7 µM.
Consider `CCCc1ccc(NC(=O)NCCCl)cc1` [Compound 3], for which the IC50 came out at 9.8 µM in data set [5] (setting [9]), 12 µM in data set [1] (setting [10]) and 11 µM in data set [6] (setting [11]).
As for `CC(C)c1ccc(NC(=O)NCCCl)cc1` [Compound 4], the results for the IC50 in data set [5] (setting [9]), in data set [1] (setting [10]) and in data set [6] (setting [11]) were 1.3 µM, 2 µM and 2.2 µM, respectively. Moreover, the “median survival time (T/C %)” value in data set [8] is listed as 164%.
As to `CCC(C)c1ccc(NC(=O)NCCCl)cc1` (stereo not shown) [Compound 5], the IC50 in data set [5] (setting [9]) was determined as 1.6 µM; in data set [1] (setting [10]), 2.2 µM; in data set [6] (setting [11]), 2.4 µM.
In the case of `CCCCCc1ccc(NC(=O)NCCCl)cc1` [Compound 6], the IC50 in data set [5] (setting [9]) worked out at 5.5 µM; in data set [1] (setting [10]), 6 µM; in data set [6] (setting [11]), 7 µM.
For `CCCCCCc1ccc(NC(=O)NCCCl)cc1` [Compound 7], in that order: 6.2 µM, 7.3 µM and 7.9 µM.
In the case of `O=C(NCCCl)Nc1ccc(C2CCCCC2)cc1` [Compound 8], the IC50 in data set [5] (setting [9]) worked out at 22 µM; in data set [1] (setting [10]) it was 29 µM; in data set [6] (setting [11]), 22 µM.
Consider `CCCCCCCc1ccc(NC(=O)NCCCl)cc1` [Compound 9], for which the IC50 in data set [5] (setting [9]) came out at 15 µM; in data set [1] (setting [10]), 16 µM; in data set [6] (setting [11]), 18 µM.
Consider `CCCCCCCCc1ccc(NC(=O)NCCCl)cc1` [Compound 10], for which the IC50 in data set [5] (setting [9]) is 29 µM; in data set [1] (setting [10]) it was 33 µM; in data set [6] (setting [11]) it was 32 µM.
On to `CCOc1cccc(NC(=O)NCCCl)c1` [Compound 14], for which the IC50 came to 35 µM in data set [5] (setting [9]), 33 µM in data set [1] (setting [10]) and 42 µM in data set [6] (setting [11]).
Regarding `CCCCCOc1ccc(NC(=O)NCCCl)cc1` [Compound 15], the IC50 in data set [5] (setting [9]) came to 16 µM; in data set [1] (setting [10]) it was 22 µM; in data set [6] (setting [11]) it was 28 µM.
For `CCCCCCOc1ccc(NC(=O)NCCCl)cc1` [Compound 16], in that order: 16 µM, 22 µM and 17 µM.
Take `O=C(NCCCl)Nc1ccc(CCO)cc1` [Compound 36]: the “Acute toxicity, survival” value in data set [7] (9.25 mg/kg i.p.), in data set [7] (18.5 mg/kg i.p.), in data set [7] (37 mg/kg i.p.), in data set [7] (75 mg/kg i.p.), in data set [7] (111 mg/kg i.p.) and in data set [7] (148 mg/kg i.p.) was 6/6 throughout. In addition, the “Acute toxicity, survival” value in data set [7] (222 mg/kg i.p.) and in data set [7] (296 mg/kg i.p.) was 6/6 throughout. For the same molecule, in data set [8], the “median survival time (T/C %)” value was determined as 140%.
On to `CCSc1ccc(NC(=O)NCCCl)cc1` [Compound 39], for which the IC50 in data set [1] (setting [10]) was determined as 17 µM.
In the case of `O=C(NCCCl)Oc1ccc([N+](=O)[O-])cc1` [Compound 40, 4-nitro phenyl N-(2chloroethyl) carbamate], the IC50 in data set [5] (setting [9]) came to 7 µM; in data set [1] (setting [10]), 10 µM; in data set [6] (setting [11]) it was 8.2 µM.
For `Cc1cc(OC(=O)NCCCl)ccc1[N+](=O)[O-]` [Compound 47], in that order: 7.2 µM, 7.5 µM and 8 µM.
On the same counts, the results for `Cc1ccc(OC(=O)NCCCl)cc1C` [Compound 50] are 30 µM, 40 µM and 40 µM.
On the same counts, the results for `O=C(NCCCl)Oc1cccc(Cl)c1` [Compound 63] are 7.5 µM, 8.5 µM and 5 µM.
For `O=C(NCCCl)Nc1ccc2[nH]ccc2c1` [IX, 5-[3-(2-chloroethyl)ureido]indole], the IC50 in data set [1] (setting [12]) worked out at 70 µM.
On to `O=C(NCCCl)Nc1ccc2c(c1)Cc1ccccc1-2` [V, 2-[3-(2chloroethyl)ureido]fluorene], for which the values for the IC50 in data set [5] (setting [13]), in data set [1] (setting [12]) and in data set [6] (setting [14]) were 5 µM, 4 µM and 4 µM, respectively.
As for `O=C(NCCCl)Nc1ccc2c(c1)CCC2` [VI, 5-[3-(2-chloroethyl)ureido]indane], the IC50 in data set [5] (setting [13]) was found to be 5 µM; in data set [1] (setting [12]), 7 µM; in data set [6] (setting [14]), 7 µM.
Regarding `O=C(NCCCl)Nc1ccc2cn[nH]c2c1` [VII, 6-[3-(2-chloroethyl)ureido]indazole], the IC50 in data set [5] (setting [13]) stood at 31 µM; in data set [1] (setting [12]), 29 µM; in data set [6] (setting [14]) it was 76 µM.
